US8648059B2, “Use of epicatechin and derivatives and salts thereof for cardiac protection of ischemic myocardium and to ameliorate adverse cardiac remodeling” (The Regents of the University of California, priority 2008, dated 2014)

Key:
Assay type in all cases: in vivo, rat
Sprague Dawley rats = assay: IR (30 minutes ischemia) infarct size, single IV therapy 15 min before reperfusion
Description: Lateral thoracotamy with 30 minutes ischemia>reperfusion was performed a treated per the groups above 15 min before reperfusion IV in the femoral artery. Animals were humanely sacrificed and the hearts were then section and stained to examine tissue injury.

Sprague-Dawley rats [1] = assay: Ischemia-reperfusion (45 min coronary ligation) infarct size, oral epicatechin pre-treatment (Example 1); settings: for infarct area: epicatechin 1 mg/kg/day oral
Description: (§1) Adult male Sprague-Dawley rats (Harlan, Indianapolis, Ind.) weighing ˜250 g were used. Epicatechin (1 mg/kg/day; Sigma-Aldrich, St. Louis, Mo.) or vehicle (water) was administered orally by gavage once/day beginning 10 days before thoracotomy and continuing until the time of the terminal study (48 h or 3 weeks). A subgroup of “normal” animals were treated with water or epicatechin for 10 day and were used to evaluate the effects of epicatechin on hemodynamics. For 48 hr studies the groups included IR and IR+10 day epicatechin. For 3 week studies, the groups included sham, sham+10 day epicatechin, IR and IR+10 day epicatechin.
Ischemia-reperfusion: Animals were anesthetized by intraperitoneal injection of ketamine (100 mg/kg) and xylazine (10 mg/kg), intubated, and positive-pressure ventilated. Following a left thoracotomy, the left anterior descending coronary artery was ligated for 45 min, (except in shams) released and the suture left in place. The chest was closed and animals allowed to fully recover. Successful occlusion and reperfusion were verified by visual inspection of left ventricle (LV) color. Sham animals were treated identically, except the ligature was not tightened.
Determination of Infarct Size: Terminal study hearts were excised and weighed. In 48 h hearts, the area at risk was determined by the reocclusion of the snare and infusion of trypan blue (0.4%) into the cannulated aorta. Hearts were sectioned at 0 mmHg into five 2 mm rings and stained using triphenyltetrazolium chloride to determine the infarct area. Computer assisted image analysis was used using blinded operators. For 3 week studies hearts were processed as above and sectioned to identify the infarct (i.e. scar) area. The images of unfixed, stained rings were also used to measure internal and external chamber diameters, anterior and septal wall thicknesses.
Statistical Analysis Comparisons between means±S.E.M were analyzed by student's t-tests or one-way ANOVA followed by Bonferroni post-hoc. P<0.05 was considered statistically significant. The investigator who analyzed the data was blinded to what group (control vs. treatment with epicatechin) the animal belonged to.

Sprague-Dawley rats [2] = assay: Permanent coronary occlusion infarct size (Example 2); settings: epicatechin 1 mg/kg/day oral
Description: Determination of Infarct Size: Terminal study hearts were excised and weighed. In 48 h hearts, the area at risk was determined by the reocclusion of the snare and infusion of trypan blue (0.4%) into the cannulated aorta. […] Computer assisted image analysis was used using blinded operators. For 3 week studies hearts were processed as above and sectioned to identify the infarct (i.e. scar) area. The images of unfixed, stained rings were also used to measure internal and external chamber diameters, anterior and septal wall thicknesses. Adult male Sprague-Dawley rats (Harlan, Indianapolis, Ind.) weighing ˜250 g were used. […] Sigma-Aldrich, St. Louis, Mo.) or vehicle (water) was administered orally by gavage once/day beginning 10 days before thoracotomy and continuing until the time of the terminal study (48 h or 3 weeks). Thoracotomy was performed at day 10. In the sham group, the chest was only opened and closed; no artery was permanently occluded. […] At 48 hours the animals were anesthetized and hemodynamics recorded. The heart was excised and for infarcted animals only the infarct size and heart structure (morphometry) were determined. […] At 3 weeks the animals were anesthetized and hemodynamics recorded. The heart was excised and for infarcted animals only the infarct size and heart structure (morphometry) were determined.

Sprague-Dawley rats [3] = assay: Hemodynamics after permanent coronary occlusion (Example 2); settings: for LVEDP / LVPSP / MAP: epicatechin; for HR: epicatechin 1 mg/kg/day
Description: (§2) Hemodynamics: All animals were weighed and anesthetized with 5% isoflurane (maintenance at 1-2%). Arterial (carotid) and LV pressures were measured using a micromanometer just prior to sacrifice and data digitally recorded.
Adult male Sprague-Dawley rats (Harlan, Indianapolis, Ind.) weighing ˜250 g were used. Epicatechin (1 mg/kg/day; Sigma-Aldrich, St. Louis, Mo.) or vehicle (water) was administered orally by gavage once/day beginning 10 days before thoracotomy and continuing until the time of the terminal study (48 h or 3 weeks). Thoracotomy was performed at day 10. In the sham group, the chest was only opened and closed; no artery was permanently occluded. For the infarct group, the left anterior descending coronary artery was permanently occluded. In the 48 hour treatment arm, the animals were allowed to heal with treatment of epicatechin at 1 mg/kg/day continued for 48 hours. At 48 hours the animals were anesthetized and hemodynamics recorded. The heart was excised and for infarcted animals only the infarct size and heart structure (morphometry) were determined. In the 3 week treatment arm, the animals were allowed to heal for 3 weeks with daily treatment of epicatechin at 1 mg/kg/day. At 3 weeks the animals were anesthetized and hemodynamics recorded. The heart was excised and for infarcted animals only the infarct size and heart structure (morphometry) were determined.
Methods of determining infarct size, hemodynamics, tissue collection statistical analysis is as described in Example 1.

Sprague-Dawley rats [4] = assay: Hemodynamics in normal, sham and IR rats (Example 1)
Description: as §1, §2
Hemodynamics: Hemodynamics (Table 1A) were measured in normal and normal+10 d epicatechin. […] Values shown are mean ±SEM. Statistical analysis was done by ANOVA except where denoted. In the IR group the rats are fed the control and ischemia is induced (by temporary occlusion of the coronary artery). In the IR+epicatechin the rats are given epicatechin and ischemia is induced. […] The purpose of these two groups was to determine baseline hemodynamics.

Sprague-Dawley rats [5] = assay: Cardiac morphometry 3 weeks after IR (Example 1); settings: epicatechin
Description: Adult male Sprague-Dawley rats (Harlan, Indianapolis, Ind.) weighing ˜250 g were used. […] Sigma-Aldrich, St. Louis, Mo.) or vehicle (water) was administered orally by gavage once/day beginning 10 days before thoracotomy and continuing until the time of the terminal study (48 h or 3 weeks). A subgroup of “normal” animals were treated with water or epicatechin for 10 day and were used to evaluate the effects of epicatechin on hemodynamics. […] Determination of Infarct Size: Terminal study hearts were excised and weighed. In 48 h hearts, the area at risk was determined by the reocclusion of the snare and infusion of trypan blue (0.4%) into the cannulated aorta. […] Computer assisted image analysis was used using blinded operators. For 3 week studies hearts were processed as above and sectioned to identify the infarct (i.e. scar) area. The images of unfixed, stained rings were also used to measure internal and external chamber diameters, anterior and septal wall thicknesses.

Sprague-Dawley rats [6] = assay: Cardiac morphometry after permanent coronary occlusion (Example 2); settings: epicatechin
Description: Determination of Infarct Size: Terminal study hearts were excised and weighed. In 48 h hearts, the area at risk was determined by the reocclusion of the snare and infusion of trypan blue (0.4%) into the cannulated aorta. […] Computer assisted image analysis was used using blinded operators. For 3 week studies hearts were processed as above and sectioned to identify the infarct (i.e. scar) area. The images of unfixed, stained rings were also used to measure internal and external chamber diameters, anterior and septal wall thicknesses. Adult male Sprague-Dawley rats (Harlan, Indianapolis, Ind.) weighing ˜250 g were used. […] Sigma-Aldrich, St. Louis, Mo.) or vehicle (water) was administered orally by gavage once/day beginning 10 days before thoracotomy and continuing until the time of the terminal study (48 h or 3 weeks). Thoracotomy was performed at day 10. In the sham group, the chest was only opened and closed; no artery was permanently occluded. For the infarct group, the left anterior descending coronary artery was permanently occluded. In the 48 hour treatment arm, the animals were allowed to heal with treatment of epicatechin at 1 mg/kg/day continued for 48 hours. At 48 hours the animals were anesthetized and hemodynamics recorded. The heart was excised and for infarcted animals only the infarct size and heart structure (morphometry) were determined. In the 3 week treatment arm, the animals were allowed to heal for 3 weeks with daily treatment of epicatechin at 1 mg/kg/day. At 3 weeks the animals were anesthetized and hemodynamics recorded. The heart was excised and for infarcted animals only the infarct size and heart structure (morphometry) were determined.

[7] = 48 h IR, 10 d epicatechin pretreatment

C[C@H]1c2cccc(O)c2C(O)=C2C(=O)[C@]3(O)C(O)=C(C(N)=O)C(=O)[C@@H](N(C)C)[C@@H]3[C@@H](O)[C@@H]21 [DOX, doxycycline]
reduction of IR induced infarct size (Sprague Dawley rats; at 4 hours, IV 5 mg/kg): ~10%

Oc1cc(O)c2c(c1)O[C@H](c1ccc(O)c(O)c1)[C@H](O)C2 [epicatechin]
infarct area (Sprague-Dawley rats [1]; 3 weeks after IR, control 50.4±5.6%, p=0.05): 33.7±5.5%
reduction in scar size (Sprague-Dawley rats [1]; 3 weeks post-IR): ~33%
infarct area (Sprague-Dawley rats [1]; 48 h after IR, 10 day pre-treatment, control 51.4±1.8%, P<0.0001): 26.3±3.4%
reduction in infarct size (Sprague-Dawley rats [1]; temporary occlusion experiment, FIG. 1, vs vehicle): ~50%
reduction of infarct size (Sprague-Dawley rats [2]; 3 weeks after infarction (permanent occlusion), FIG. 9a): 33%
reduction of infarct size (Sprague-Dawley rats [2]; 48 h after permanent coronary occlusion, FIG. 8): 50%
LVEDP (Sprague-Dawley rats [3]; PCO 3 week): 11 ± 1 mmHg
LVPSP (Sprague-Dawley rats [3]; PCO 3 week): 102 ± 3 mmHg
MAP (Sprague-Dawley rats [3]; PCO 3 week): 82 ± 2 mmHg
HR (Sprague-Dawley rats [3]; PCO 3 week): 268 ± 10 bpm
LVEDP (Sprague-Dawley rats [3]; PCO 48 h): 5.8 ± 1.2 mmHg
LVPSP (Sprague-Dawley rats [3]; PCO 48 h): 107 ± 4 mmHg
MAP (Sprague-Dawley rats [3]; PCO 48 h): 91 ± 5 mmHg
HR (Sprague-Dawley rats [3]; PCO 48 h): 342 ± 8 bpm
HR (Sprague-Dawley rats [3]; sham, 3 weeks after thoracotomy): 303 ± 10 bpm
LVEDP (Sprague-Dawley rats [3]; sham, 3 weeks): 6.4 ± 0.9 mmHg
LVPSP (Sprague-Dawley rats [3]; sham, 3 weeks): 118 ± 4 mmHg
MAP (Sprague-Dawley rats [3]; sham, 3 weeks): 92 ± 4 mmHg
LVEDP (Sprague-Dawley rats [3]; sham, 48 h): 4.3 ± 1.2 mmHg
LVPSP (Sprague-Dawley rats [3]; sham, 48 h): 102 ± 2 mmHg
MAP (Sprague-Dawley rats [3]; sham, 48 h): 83 ± 2 mmHg
HR (Sprague-Dawley rats [3]; sham, 48 h after thoracotomy): 334 ± 10 bpm
HR (heart rate) (Sprague-Dawley rats [4]; 3 wk IR, epicatechin): 302 ±18^ bpm
LVEDP (Sprague-Dawley rats [4]; 3 wk IR, epicatechin): 5.5 ± 1.5 mmHg
LVPSP (Sprague-Dawley rats [4]; 3 wk IR, epicatechin): 108 ± 4 mmHg
MAP (Sprague-Dawley rats [4]; 3 wk IR, epicatechin): 85 ± 4 mmHg
LVEDP (left ventricular end diastolic pressure) (Sprague-Dawley rats [4]; [7]): 4.9 ± 0.5 mmHg
LVPSP (left ventricular peak systolic pressure) (Sprague-Dawley rats [4]; [7]): 110 ± 5 mmHg
MAP (mean aortic pressure) (Sprague-Dawley rats [4]; [7]): 90 ± 5 mm Hg
HR (heart rate) (Sprague-Dawley rats [4]; 48 h IR, 10 d epicatechin pretreatment, mean ± SEM): 373 ± 17 bpm
LVEDP (left ventricular end diastolic pressure) (Sprague-Dawley rats [4]; normal rats, 10 d epicatechin): 6.7 ± 1.3 mmHg
LVPSP (left ventricular peak systolic pressure) (Sprague-Dawley rats [4]; normal rats, 10 d epicatechin): 112 ± 14 mmHg
MAP (mean aortic pressure) (Sprague-Dawley rats [4]; normal rats, 10 d epicatechin): 99 ± 10 mm Hg
HR (heart rate) (Sprague-Dawley rats [4]; normal rats, 10 d epicatechin 1 mg/kg/day oral, mean ± SEM): 346 ± 8 bpm
HR (heart rate) (Sprague-Dawley rats [4]; sham, 3 wk study, epicatechin): 328 ± 11 bpm
LVEDP (Sprague-Dawley rats [4]; sham, 3 wk study, epicatechin): 2.6 ± 0.2 mmHg
LVPSP (Sprague-Dawley rats [4]; sham, 3 wk study, epicatechin): 116 ± 6.2 mmHg
MAP (Sprague-Dawley rats [4]; sham, 3 wk study, epicatechin): 92 ± 11 mmHg
blood pressure (Sprague-Dawley rats [4]; ten days of treatment in noninfarcted animals): did not reduce blood pressure
reduction of IR induced infarct size (Sprague Dawley rats; at 48 h, IV 10 mg/kg): 36%
AW thickness (Sprague-Dawley rats [5]; 3 wk IR): 0.41 ± 0.02 mm
HW/BW (heart weight/body weight) (Sprague-Dawley rats [5]; 3 wk IR): 4.5 ± 0.2
Inner LV diam. (Sprague-Dawley rats [5]; 3 wk IR): 0.55 ± 0.05 mm
Outer LV diam. (Sprague-Dawley rats [5]; 3 wk IR): 1.6 ± 0.04 mm
SW thickness (Sprague-Dawley rats [5]; 3 wk IR): 0.49 ± 0.03 mm
AW thickness (Sprague-Dawley rats [5]; sham, 3 wk study): 0.53 ± 0.05 mm
HW/BW (heart weight/body weight) (Sprague-Dawley rats [5]; sham, 3 wk study): 3.2 ± 0.5
Inner LV diam. (Sprague-Dawley rats [5]; sham, 3 wk study): 0.52 ± 0.08 mm
Outer LV diam. (Sprague-Dawley rats [5]; sham, 3 wk study): 1.6 ± 0.1 mm
SW thickness (Sprague-Dawley rats [5]; sham, 3 wk study): 0.47 ± 0.04 mm
AW thickness (Sprague-Dawley rats [6]; PCO 3 week): 0.446 ± 0.04 mm
HW/BW (Sprague-Dawley rats [6]; PCO 3 week): 4.4 ± 0.7
Inner LV diam. (Sprague-Dawley rats [6]; PCO 3 week): 0.546 ± 0.046 mm
Outer LV diam. (Sprague-Dawley rats [6]; PCO 3 week): 1.495 ± 0.031 mm
SW thickness (Sprague-Dawley rats [6]; PCO 3 week): 0.475 ± 0.02 mm
AW thickness (Sprague-Dawley rats [6]; PCO 48 h): 0.57 ± 0.03 mm
SW thickness (Sprague-Dawley rats [6]; PCO 48 h): 0.57 ± 0.02 mm
AW thickness (Sprague-Dawley rats [6]; sham, 3 weeks): 0.58 ± 0.05 mm
HW/BW (Sprague-Dawley rats [6]; sham, 3 weeks): 3.82 ± 0.3
Inner LV diam. (Sprague-Dawley rats [6]; sham, 3 weeks): 0.490 ± 0.046 mm
Outer LV diam. (Sprague-Dawley rats [6]; sham, 3 weeks): 1.469 ± 0.075 mm
SW thickness (Sprague-Dawley rats [6]; sham, 3 weeks): 0.38 ± 0.04 mm
AW thickness (Sprague-Dawley rats [6]; sham, 48 h): 0.54 ± 0.05 mm
SW thickness (Sprague-Dawley rats [6]; sham, 48 h): 0.33 ± 0.06 mm

catechin
area at risk (Sprague Dawley rats; methods of Example 5, FIG. 16): no effect
infarction size (Sprague Dawley rats; methods of Example 5, FIG. 16): no effect
